Measured values published in patent US9650340B2, “5-fluoro-N-(pyridin-2-yl)pyridin-2-amine derivatives containing a sulfoximine group” (BAYER PHARMA AKTIENGESELLSCHAFT, priority 2012, dated 2017).
Read-outs that look alike come from different tables or passages of the source.

Tests used:
[1] = biological target: T1, CDK9/CycT1 (Homo sapiens, UniProt P50750); assay: CDK9/CycT1 high ATP kinase assay (TR-FRET, 2 mM ATP); type: biochemical; conditions: Method 1b
T1 construct: Recombinant full-length His-tagged human CDK9 and CycT1; His; purchased Invitrogen PV4131; host or cells: insect cells
T1 sequence (P50750 whole entry): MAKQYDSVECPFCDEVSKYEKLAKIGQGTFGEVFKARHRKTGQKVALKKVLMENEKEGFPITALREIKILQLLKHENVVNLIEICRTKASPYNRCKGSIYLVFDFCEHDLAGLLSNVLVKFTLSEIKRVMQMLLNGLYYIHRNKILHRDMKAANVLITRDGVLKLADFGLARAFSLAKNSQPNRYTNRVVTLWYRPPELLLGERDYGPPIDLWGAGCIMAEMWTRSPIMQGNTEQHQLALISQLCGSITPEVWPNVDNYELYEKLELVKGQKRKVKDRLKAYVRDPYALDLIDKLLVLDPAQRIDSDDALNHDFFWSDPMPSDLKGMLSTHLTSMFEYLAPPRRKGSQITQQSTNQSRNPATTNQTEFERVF
T1 sequence (O60563 whole entry partner): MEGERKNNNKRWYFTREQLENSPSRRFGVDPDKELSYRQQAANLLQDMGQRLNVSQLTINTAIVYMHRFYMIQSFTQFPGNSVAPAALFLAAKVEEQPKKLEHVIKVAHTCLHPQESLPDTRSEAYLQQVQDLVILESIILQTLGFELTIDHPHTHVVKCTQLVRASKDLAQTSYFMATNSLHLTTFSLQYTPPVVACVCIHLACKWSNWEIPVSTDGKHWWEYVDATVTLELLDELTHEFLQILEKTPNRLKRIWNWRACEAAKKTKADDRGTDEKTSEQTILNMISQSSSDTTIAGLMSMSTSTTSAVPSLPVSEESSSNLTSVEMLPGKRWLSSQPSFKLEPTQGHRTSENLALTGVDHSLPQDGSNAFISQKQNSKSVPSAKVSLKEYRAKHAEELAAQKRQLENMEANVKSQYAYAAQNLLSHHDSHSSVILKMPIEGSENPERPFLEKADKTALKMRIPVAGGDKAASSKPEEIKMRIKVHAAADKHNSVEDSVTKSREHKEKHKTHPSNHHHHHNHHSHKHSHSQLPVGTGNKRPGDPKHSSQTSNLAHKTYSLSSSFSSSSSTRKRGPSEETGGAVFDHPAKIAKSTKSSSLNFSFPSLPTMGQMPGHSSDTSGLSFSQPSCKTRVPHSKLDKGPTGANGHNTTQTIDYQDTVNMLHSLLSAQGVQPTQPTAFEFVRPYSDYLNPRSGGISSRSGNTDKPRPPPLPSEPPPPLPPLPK
Experimental: 1b. CDK9/CyeT1 High ATP Kinase Assay
CDK9/CycT1-inhibitory activity of compounds of the present invention at a high ATP concentration after preincubation of enzyme and test compounds was quantified employing the CDK9/CycT1 TR-FRET assay as described in the following paragraphs.
Recombinant full-length His-tagged human CDK9 and CycT1, expressed in insect cells and purified by Ni-NTA affinity chromatography, were purchase from Invitrogen (Cat. No PV4131). As substrate for the kinase reaction biotinylated peptide biotin-Ttds-[…] (C-terminus in amid form) was used which can be purchased e.g. form the company JERINI peptide technologies (Berlin, Germany). For the assay 50 nl of a 100 fold concentrated solution of the test compound in DMSO was pipetted into a black low volume 384 well microtiter plate (Greiner Bio-One, Frickenhausen, Germany), 2 μl of a solution of CDK9/CycT1 in aqueous assay buffer [50 mM Tris/HCl pH 8.0, 10 mM MgCl2, 1.0 mM dithiothreitol, 0.1 mM sodium ortho-vanadate, 0.01% (v/v) Nonidet-P40 (Sigma)] were added and the mixture was incubated for 15 min at 22° C. to allow pre-binding of the test compounds to the enzyme before the start of the kinase reaction. Then the kinase reaction was started by the addition of 3 μl of a solution of adenosine-tri-phosphate (ATP, 3.3 mM=>final conc. in the 5 μl assay volume is 2 mM) and substrate (1.67 μM=>final conc. in the 5 μl assay volume is 1 μM) in assay buffer and the resulting mixture was incubated for a reaction time of 25 min at 22° C.
The resulting mixture was incubated 1 h at 22° C. to allow the formation of complex between the phosphorylated biotinylated peptide and the detection reagents. Subsequently the amount of phosphorylated substrate was evaluated by measurement of the resonance energy transfer from the Eu-chelate to the streptavidine-XL. Therefore, the fluorescence emissions at 620 nm and 665 nm after excitation at 350 nm was measured in a HTRF reader, e.g. a Rubystar (BMG Labtechnologies, Offenburg, Germany) or a Viewlux (Perkin-Elmer). The ratio of the emissions at 665 nm and at 622 nm was taken as the measure for the amount of phosphorylated substrate.

[2] = tested on: NCI-H460, human non-small cell lung carcinoma cells; assay: Proliferation assay, NCI-H460 (crystal violet); type: cell-based; conditions: NCI-H460, 4 days, read-out: Inhibition of NCI-H460 cell proliferation IC50
Experimental: (§1) Cultivated tumour cells (HeLa, human cervical tumour cells, ATCC CCL-2; NCI-H460, human non-small cell lung carcinoma cells, ATCC HTB-177; A2780, human ovarian carcinoma cells, ECACC #93112519; DU 145, hormone-independent human prostate carcinoma cells, ATCC HTB-81; HeLa-MaTu-ADR, multidrug-resistant human cervical carcinoma cells, EPO-GmbH Berlin; Caco-2, human colorectal carcinoma cells, ATCC HTB-37; B16F10, mouse melanoma cells, ATCC CRL-6475) were plated at a density of 5,000 cells/well (DU145, HeLa-MaTu-ADR), 3,000 cells/well (NCI-H460, HeLa), 2,500 cells/well (A2780), 1,500 cells/well (Caco-2), or 1,000 cells/well (B16F10) in a 96-well multititer plate in 200 μL of their respective growth medium supplemented 10% fetal calf serum. After 24 hours, the cells of one plate (zero-point plate) were stained with crystal violet (see below), while the medium of the other plates was replaced by fresh culture medium (200 μl), to which the test substances were added in various concentrations (0 μM, as well as in the range of 0.001-10 μM; the final concentration of the solvent dimethyl sulfoxide was 0.5%). The cells were incubated for 4 days in the presence of test substances. Cell proliferation was determined by staining the cells with crystal violet: the cells were fixed by adding 20 μl/measuring point of an 11% glutaric aldehyde solution for 15 minutes at room temperature. After three washing cycles of the fixed cells with water, the plates were dried at room temperature. The cells were stained by adding 100 μl/measuring point of a 0.1% crystal violet solution (pH 3.0). After three washing cycles of the stained cells with water, the plates were dried at room temperature. The dye was dissolved by adding 100 μl/measuring point of a 10% acetic acid solution. The extinction was determined by photometry at a wavelength of 595 nm. The change of cell number, in percent, was calculated by normalization of the measured values to the extinction values of the zero-point plate (=0%) and the extinction of the untreated (0 μm) cells (=100%). The IC50 values (inhibitory concentration at 50% of maximal effect) were determined by means of a 4 parameter fit. Non-adherent MOLM-13 human acute myeloid leukemia cells (DSMZ ACC 554) were seeded at a density of 5,000 cells/well in a 96-well multititer plate in 100 μL of growth medium supplemented 10% fetal calf serum. After 24 hours, cell viability of one plate (zero-point plate) was determined with the Cell Titre-Glo Luminescent Cell Viability Assay (Promega), while 50 μL of test compound containing medium was added to the wells of the other plates (final concentrations in the range of 0.001-10 μM and DMSO controls; the final concentration of the solvent dimethyl sulfoxide was 0.5%). Cell viability was assessed after 72-hour exposure with the Cell Titre-Glo Luminescent Cell Viability Assay (Promega).

[3] = tested on: Caco-2, human colorectal carcinoma cells; assay: Proliferation assay, Caco-2 (crystal violet); type: cell-based; conditions: Caco-2, 4 days, read-out: Inhibition of Caco-2 cell proliferation IC50
Experimental: as §1

Compound | IC50 [1] | IC50 ([2]; Homo sapiens, NCI-H460, 96 h) | IC50 ([3]; Homo sapiens, Caco-2, 96 h) | IC50 [2] | IC50 [3]
COc1cc(F)ccc1-c1cc(Nc2cc(CS(C)(=O)=NC(=O)C(F)(F)F)cc(C(F)(F)F)n2)ncc1F (single isomer, unassigned; (+)) [Example 24, (+)-2,2,2-Trifluoro-N-[{[2-{[5-fluoro-4-(4-fluoro-2-methoxyphenyl)pyridin-2-yl]amino}-6-(trifluoromethyl)-pyridin-4-yl]methyl}(methyl)oxido-λ^6-sulfanylidene]acetamide] | 27 nM | 33 nM | 41 nM | – | –
CCOc1cc(F)ccc1-c1cc(Nc2cc(CS(C)(=N)=O)cc(F)n2)ncc1F (racemic) [Example 26, (rac)-4-(2-Ethoxy-4-fluorophenyl)-5-fluoro-N-{6-fluoro-4-[(S-methylsulfonimidoyl)methyl]pyridin-2-yl}pyridin-2-amine] | 4 nM | 120 nM | 86 nM | – | –
COc1cc(F)ccc1-c1cc(Nc2cc(CS(C)(=N)=O)cc(C)n2)ncc1F (single isomer, unassigned; (+)) [Example 32, (+)-5-Fluoro-4-(4-fluoro-2-methoxyphenyl)-N-{6-methyl-4-[(S-methylsulfonimidoyl)methyl]pyridin-2-yl}pyridin-2-amine] | 2 nM | – | 40 nM | 100 nM | –
CCOC(=O)N=S(C)(=O)Cc1cc(Nc2cc(-c3ccc(F)cc3OC)c(F)cn2)nc(OC)c1 (racemic) [Example 15, (rac)-ethyl{[(2-{[5-fluoro-4-(4-fluoro-2-methoxyphenyl)pyridin-2-yl]amino}-6-methoxypyridin-4-yl)methyl](methyl)oxido-λ^6-sulfanylidene}carbamate] | 1 nM | 32 nM | 39 nM | – | –
COc1cc(F)ccc1-c1cc(Nc2cc(CS(C)(=N)=O)cc(C(F)(F)F)n2)ncc1F (single isomer, unassigned; (-)) [Example 23, (−)-5-Fluoro-4-(4-fluoro-2-methoxyphenyl)-N-{4-[(S-methylsulfonimidoyl)methyl]-6-(trifluoromethyl)pyridin-2-yl}pyridin-2-amine] | 2 nM | – | – | 35 nM | 34 nM
COc1cc(F)ccc1-c1cc(Nc2cc(CS(C)(=N)=O)cc(F)n2)ncc1F (single isomer, unassigned; (-)) [Example 20, (−)-5-Fluoro-4-(4-fluoro-2-methoxyphenyl)-N-{6-fluoro-4-[(S-methylsulfonimidoyl)methyl]pyridin-2-yl}pyridin-2-amine] | 1 nM | – | 45 nM | 100 nM | –
CCOC(=O)N=S(C)(=O)Cc1ccnc(Nc2cc(-c3ccc(F)cc3OC)c(F)cn2)c1 (racemic) [Example 11, (rac)-Ethyl{[(2-{[5-fluoro-4-(4-fluoro-2-methoxyphenyl)pyridin-2-yl]amino}pyridin-4-yl)methyl](methyl)oxido-λ^6-sulfanylidene}carbamate] | 1 nM | 110 nM | 110 nM | – | –
CCS(=N)(=O)Cc1ccnc(Nc2cc(-c3ccc(F)cc3OC)c(F)cn2)c1 (racemic) [Example 30, (rac)-N-{4-[(S-Ethylsulfonimidoyl)-methyl]pyridin-2-yl}-5-fluoro-4-(4-fluoro-2-methoxyphenyl)pyridin-2-amine] | 5 nM | 120 nM | 52 nM | – | –
COc1cc(F)ccc1-c1cc(Nc2cc(CS(C)(=N)=O)cc(C(F)(F)F)n2)ncc1F (racemic) [Example 21, (rac)-5-Fluoro-4-(4-fluoro-2-methoxyphenyl)-N-{4-[(S-methylsulfonimidoyl)methyl]-6-(trifluoromethyl)pyridin-2-yl}pyridin-2-amine] | 2 nM | 33 nM | 32 nM | – | –
COc1cc(CS(C)(=N)=O)cc(Nc2cc(-c3ccc(F)cc3OC)c(F)cn2)n1 (racemic) [Example 6, (rac)-5-Fluoro-4-(4-fluoro-2-methoxyphenyl)-N-{6-methoxy-4-[(S-methylsulfonimidoyl)methyl]pyridin-2-yl}pyridin-2-amine] | 1 nM | 33 nM | 31 nM | – | –
